Assay results: patent publication US20240033237A1, “USE OF A-KETOGLUTARATE IN MANUFACTURE OF MEDICAMENT” (TONGJI UNIVERSITY, priority 2019, published 2024)

How the values were obtained:
chondrocytes [1] = assay: Synthetic phenotype of IL-1β-stimulated mouse chondrocytes (whole-genome sequencing, q-PCR, western blot); assay type: cell-based
Experimental: (§1) Mouse chondrocytes were obtained from 7-day-old C57BL/6 mice (Shanghai Slac laboratory animal Co., Ltd.), and the procedure was as follows: under aseptic surgical conditions, bilateral knee cartilages of C57 mice were carefully stripped and digested with 0.2% neutral collagenase (Serva, Germany) for 8 h; cell precipitates were obtained by centrifugation, and the cells were resuspended in modified Eagle medium (DMEM) (Gibco, USA) containing 10% FBS, inoculated in culture dishes, and cultured with high-sugar DMEM medium (containing 10% FBS, 100 U/mL penicillin and 100 mg/L streptomycin) at 37° C. in a 5% CO2 constant temperature incubator. The medium was changed for the first time at 48 h. […] The cells were collected by centrifugation and resuspended, and the concentration was adjusted for inoculation in culture dishes. The cells were subcultured by the above method, and the obtained cells were labeled as P1, P2, P3 generations, etc.
(2) Real-Time Fluorescent Quantitative PCR (Real Time q-PCR) Analysis • 1) The P1 generation mouse chondrocytes cultured in Embodiment 1 were used, the culture medium was sucked out from the culture dish, and the cells were washed once with PBS. • 2) Extraction of total RNA • 1. chloroform (⅕ volume of RNAiso Plus) was added to the homogenate lysate, the cover of the centrifuge tube was closed tightly, and the centrifuge tube was shaken violently by hand for 15 seconds. […]
P1 generation mouse chondrocytes cultured in Embodiment 1 were subjected to western blot analysis through operations including the following: • 1. […] The protein concentration was determined by the BCA Protein Quantification Kit. […]

chondrocytes [2] = assay: Catabolic phenotype of IL-1β-stimulated mouse chondrocytes (whole-genome sequencing, q-PCR, western blot); assay type: cell-based
Experimental: as §1
(2) Real-Time Fluorescent Quantitative PCR (Real Time q-PCR) Analysis • 1) The P1 generation mouse chondrocytes cultured in Embodiment 1 were used, the culture medium was sucked out from the culture dish, and the cells were washed once with PBS. • 2) Extraction of total RNA • 1. chloroform (⅕ volume of RNAiso Plus) was added to the homogenate lysate, the cover of the centrifuge tube was closed tightly, and the centrifuge tube was shaken violently by hand for 15 seconds. After the solution is fully emulsified (without phase separation phenomenon), the centrifuge tube was allowed to stand at room temperature for 5 minutes. • 2. the centrifuge tube was centrifuged at 12000 g under 4° C. for 5 minutes. • 3. the centrifuge tube was carefully taken out from the centrifugal machine, at this time the homogenate was divided into three layers: a colorless supernatant, a white protein layer in the middle, and a lower organic phase with color. […] Precipitate usually occurs at the bottom of a test tube after centrifugation.
On ice, SYBR Premix Ex Taq, upstream and downstream primers of catabolic and synthetic genes of chondrocytes, ROX Reference Dye, cDNA template and dH2O were added into a test tube. After being mixed evenly, the mixture was evenly divided into PCR tubes. The PCR tubes were placed in a Q-PCR instrument to detect the product.
P1 generation mouse chondrocytes cultured in Embodiment 1 were subjected to western blot analysis through operations including the following: • 1. Collecting of protein samples: The culture medium was sucked out, and the cells were washed twice with PBS at 4° C. and then dried. 100 μl of cell lysate was added to each well, the cells were lysed on ice for 10 min, and collected into a 1.5 ml centrifuge tube. […] The protein concentration was determined by the BCA Protein Quantification Kit. […]

SMILES: COC(=O)CCC(=O)C(=O)OC [α-KG, dimethyl-α-ketoglutarate]
- expressions of chondrocyte synthetic genes SOX9, COL2A1, ACAN (chondrocytes [1]; q-PCR, 10 ng/ml IL-1β + 7 mM α-KG): promote the expressions
- protein expressions of chondrocyte synthetic genes SOX9 and COL2A (chondrocytes [1]; western blot, 6 h, 12 h, 24 h, 36 h, 10 ng/ml IL-1β + 7 mM α-KG): promote the protein expressions
- expressions of synthetic phenotypic genes (SOX9, COL2A1, ACAN, COL9A1, COL9A2, COL9A3, COL11A1, COL11A2) of chondrocytes (chondrocytes [1]; whole-genome sequencing, 24 h, 10 ng/ml IL-1β + 7 mM α-KG vs IL-1β group): increased
- gene and protein expressions of catabolic phenotypic genes MMP3, MMP13, ADAMTS5, NOS2 at different time periods (chondrocytes [2]; q-PCR and western blot, 6 h, 12 h, 24 h, 36 h, 10 ng/ml IL-1β + 7 mM α-KG): could inhibit the gene and protein expressions
- expression of cartilage catabolic phenotypic genes MMP3, MMP13, ADAMTS5, NOS2 (chondrocytes [2]; q-PCR, 24 h, 10 ng/ml IL-1β + 7 mM α-KG): inhibit the expression
- protein expression of cartilage catabolic phenotypic genes MMP3, MMP13, ADAMTS5, NOS2 (chondrocytes [2]; western blot, 24 h, 10 ng/ml IL-1β + 7 mM α-KG): inhibited the protein expression
- expressions of catabolic phenotypes (metalloproteases MMP2, MMP3, MMP8, MMP9, MMP12, MMP13, MMP27; aggrecanases ADAMTS5, 7, 12, 15, 16, 17; NOS2) of chondrocytes (chondrocytes [2]; whole-genome sequencing, 10 ng/ml IL-1β + 7 mM α-KG vs IL-1β group): suppressed
